Earlier results as cited in patent US20230390541A1, “Dermal Patch for Transdermal Modulation of Ghrelin Pathway” (Resarcion, LLC, priority 2019, published 2023).

Conditions: shortest structural analog among truncated ghrelin analogs

Ser^3(octanoyl)-ghrelin (1-5)
activity relative to native ghrelin: activity similar to the native hormone
